Test results from patent US20250312469A1 (CANGET BIOTEKPHARMA, priority 2024, published 2025).

Assays:
Agrin mRNA = test: Real-time RT-PCR of Agrin mRNA in Panc-1 and MiaPaca2 cells; type: cell-based, human
Description: Real time quantitative (q) RT-PCR: Real time RT-PCR methods were described previously (9, 56). Pertinent to this study, total RNAs were extracted from cancer cells using TRI REAGENT RT (Molecular Research Center), and 5 μg per sample was converted to cDNA with anchored oligo (dT) primers using RevertAid First Strand cDNA Synthesis Kit (Thermo Fisher Scientific, Catalog No. K1622) following the manufacturer's instructions. Individual reverse transcription (RT) reactions of 20 μL were then diluted to 200 μL with sterile H2O. Five microliters of diluted RT reaction were used for real-time qPCR using Maxima SYBR Green/ROX qPCR Master Mix (2×, Thermo Fisher Scientific, Catalog No. K0223). The primers used in qPCR were as follows: 5′-GGC GCA CAG CAC AAG AGG-3′ (DDX5 qPCR-F, forward) and 5′-ATGGCAGGAAGCAAATAAGACAA-3′ (DDX5 qPCR-R, reverse); 5′-CTTCTGCTTCAAGGAGCTGGAAG-3′ (hsv5p2, survivin, forward) and 5′-GCACTTTCTTCGCAGTTTCCTC-3′ (hvs3p2, survivin, reverse); 5′-CCACAGCAAACCTCCTCACAG-3′ (myc5, c-Myc, forward) and 5′-GCAGGATAGTCCTTCCGAGTG-3′ (myc3, c-Myc, reverse); 5′-GTCTCCTCTGACTTCAACAGCG-3′ (hGAPDH-5, forward) and 5′-ACCACCCTGTTGCTGTAGCCAA-3′ (hGAPDH-3, reverse). GAPDH was used as an internal control. […] The data were analyzed using the Applied Biosystems 7300 Real Time PCR System and normalized to GAPDH.

Plasma stability = type: in vitro ADME, human
Description: (§1) Both matrices were adjusted to pH 7.4 prior to initiating the experiments. A DMSO stock as first prepared for the test article. […] The vials were kept in a benchtop Thermomixer for the duration of the experiment. Aliquots (100 μL) were taken at each time point (0, 15, 30, 60, and 120 minutes) and added to 96-well plates which had been pre-filled with 300 μL of acetonitrile (ACN). Samples were stored at 4° C. until the end of the experiment. […] Analytical conditions are outlined in Appendix 1.

Whole blood stability = type: in vitro ADME, human
Description: as §1

[1] = molecular target: human serum albumin (HSA) (Homo sapiens, UniProt P02768); test: UV spectra (310-450 nm) with HSA; type: physicochemical
USP2a = molecular target: T1, USP2a (Homo sapiens, UniProt O75604); test: 3H-FL118 binding, Nanosep 3K centrifugal device; set-up: host or cells: HEK293T
T1 sequence (O75604 1-605): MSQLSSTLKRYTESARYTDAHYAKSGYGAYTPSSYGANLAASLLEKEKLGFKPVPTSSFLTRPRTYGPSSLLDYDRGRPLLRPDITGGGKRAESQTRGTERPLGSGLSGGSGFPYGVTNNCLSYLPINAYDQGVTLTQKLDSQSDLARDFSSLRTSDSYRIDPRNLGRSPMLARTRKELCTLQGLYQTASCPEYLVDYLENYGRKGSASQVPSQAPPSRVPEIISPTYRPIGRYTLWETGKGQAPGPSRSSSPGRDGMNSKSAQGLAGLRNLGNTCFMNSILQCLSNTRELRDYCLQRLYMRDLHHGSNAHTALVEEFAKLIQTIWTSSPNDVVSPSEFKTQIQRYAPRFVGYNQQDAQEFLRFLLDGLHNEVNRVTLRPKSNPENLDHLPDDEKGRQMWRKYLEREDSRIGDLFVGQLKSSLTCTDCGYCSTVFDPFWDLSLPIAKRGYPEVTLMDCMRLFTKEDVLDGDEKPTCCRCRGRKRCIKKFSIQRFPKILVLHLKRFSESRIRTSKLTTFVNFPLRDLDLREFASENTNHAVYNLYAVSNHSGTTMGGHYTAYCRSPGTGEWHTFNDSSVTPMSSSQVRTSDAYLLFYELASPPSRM
Description: (§2) Then, 5-10 μg of the FLAGR M Purification Kit (Signa)-purified Flag-USP2a and Flag-UbE2T proteins in a volume of 20-50 μL, respectively, was transferred into the sample reservoir of a 1.5 mL Nanosep 3K Centrifugal Device. In parallel, a negative control Nanosep 3K Centrifugal Devices containing 10 μg bovine serum albumin (BSA) in 50 μL volume was also set up. Then, the 3 prepared Nanosep 3K Devices were centrifuged at 10,000 rpm for 10-15 min to eliminate the solution and retain the proteins in the sample reservoir. […] Lastly, all three of the sample reservoir devices were transferred into a scintillation vial containing enough scintillation solution to cover the entire sample reservoir devices for tritium (3H) counting on the LS 6500 Scintillation System (Backman Couler™).

UbE2T = molecular target: T2, UbE2T (Homo sapiens, UniProt Q9NPD8); test: 3H-FL118 binding, Nanosep 3K centrifugal device; set-up: host or cells: HEK293T; details: hot FL118 solution 10 μM
T2 sequence (Q9NPD8 1-197): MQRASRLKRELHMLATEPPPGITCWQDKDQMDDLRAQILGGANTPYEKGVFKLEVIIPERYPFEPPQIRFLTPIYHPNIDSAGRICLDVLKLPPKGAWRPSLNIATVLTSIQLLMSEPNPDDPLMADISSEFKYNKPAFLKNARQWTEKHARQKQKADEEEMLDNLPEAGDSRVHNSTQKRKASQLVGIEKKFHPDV
Description: as §2

DU145 xenografts = test: DU145 xenograft tumor model; details: 8 mg/kg oral, weekly×4

human serum albumin (HSA), sequence (P02768 25-609): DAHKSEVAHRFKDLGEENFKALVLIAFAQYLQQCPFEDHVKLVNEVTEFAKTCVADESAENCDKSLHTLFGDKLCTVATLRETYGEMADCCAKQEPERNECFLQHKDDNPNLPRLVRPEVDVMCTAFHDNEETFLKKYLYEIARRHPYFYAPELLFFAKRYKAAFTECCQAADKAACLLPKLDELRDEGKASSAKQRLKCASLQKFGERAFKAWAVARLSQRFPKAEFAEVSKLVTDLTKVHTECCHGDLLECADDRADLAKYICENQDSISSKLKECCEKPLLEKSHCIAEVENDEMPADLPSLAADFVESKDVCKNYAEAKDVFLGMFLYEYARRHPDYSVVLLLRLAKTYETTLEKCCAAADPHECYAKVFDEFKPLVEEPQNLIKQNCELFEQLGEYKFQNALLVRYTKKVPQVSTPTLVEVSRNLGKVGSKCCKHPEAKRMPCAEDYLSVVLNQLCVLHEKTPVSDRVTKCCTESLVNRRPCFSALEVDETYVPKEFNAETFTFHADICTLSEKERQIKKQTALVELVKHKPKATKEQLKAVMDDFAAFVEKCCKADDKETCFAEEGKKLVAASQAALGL

CCC1(O)C(=O)OCc2c1cc1n(c2=O)Cc2cc3cc4c(cc3nc2-1)OCO4 (stereo not drawn) [FL118]
Agrin mRNA (Agrin mRNA): inhibits Agrin mRNA | half-life (Plasma stability; 0.5 μM): long half-life | Percent Remaining (Plasma stability; Human Plasma, 0 min): 100% | Percent Remaining (Plasma stability; Human Plasma, 15 min): 111% | Percent Remaining (Plasma stability; Human Plasma, 30 min): 110% | Percent Remaining (Plasma stability; Human Plasma, 60 min): 94% | Percent Remaining (Plasma stability; Human Plasma, 120 min): 26% | half-life at 0.5 μM (Plasma stability; both sexes, plasma (sodium heparin), pH 7.4, Human Plasma): 1.53 h | half-life (Whole blood stability; 0.5 μM): long half-life | Percent Remaining (Whole blood stability; Human Whole Blood, 0 min): 100% | Percent Remaining (Whole blood stability; Human Whole Blood, 15 min): 108% | Percent Remaining (Whole blood stability; Human Whole Blood, 30 min): 68% | Percent Remaining (Whole blood stability; Human Whole Blood, 60 min): 61% | Percent Remaining (Whole blood stability; Human Whole Blood, 120 min): 35% | half-life at 0.5 μM (Whole blood stability; both sexes, whole blood (sodium heparin), pH 7.4, Human Whole Blood): 1.23 h | interaction with HSA (UV absorbance decrease) ([1]; 10 μM in PBS with 4% HSA): strong interaction | interaction with HSA (UV absorbance decrease) ([1]; 10 μM, high NaCl salt, 4% HSA): strong interaction | binding of 3H-FL118 to USP2a and UbE2T versus BSA (USP2a; 3H counts per min): 10-20 fold | 3H CPM counts in retained parts (USP2a; hot FL118 solution 10 μM): 97,436 ± 2960 CPM | 3H CPM counts in retained parts (UbE2T): 52,382 ± 1930 CPM | antitumor efficacy (DU145 xenografts): well inhibited
